Our source for the IC50 values is paper PMC3549034 (Cancer research, 2012).

For this experiment, the target named is Aurora B (Homo sapiens, UniProt Q96GD4). In kind it is biochemical.
Aurora B, sequence (Q96GD4 whole entry): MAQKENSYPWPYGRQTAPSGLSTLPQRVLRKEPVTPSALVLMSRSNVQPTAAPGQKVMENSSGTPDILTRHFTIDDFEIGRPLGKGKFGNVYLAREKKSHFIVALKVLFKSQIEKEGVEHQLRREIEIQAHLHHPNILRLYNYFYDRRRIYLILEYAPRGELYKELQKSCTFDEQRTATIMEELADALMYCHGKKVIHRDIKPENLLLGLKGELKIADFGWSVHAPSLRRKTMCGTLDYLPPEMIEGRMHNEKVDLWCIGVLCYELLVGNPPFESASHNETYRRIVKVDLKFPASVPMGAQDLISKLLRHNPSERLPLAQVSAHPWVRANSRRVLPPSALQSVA

As usually defined, the IC50 is the concentration needed to halve the response being measured. Read a high IC50 as a need for much substance. For the compound `O=C(/C=C/c1ccc2c(c1)OCO2)/C=C1/C(=O)Nc2ccccc21` [HOI-07, (E)-3-((E)-4-(benzo[d][1,3]dioxol-5-yl)-2-oxobut-3-en-1-ylidene)indolin-2-one], the IC50 was about 100 nM.
